The results in this text go back to US20090105270A1, “Kinase inhibition and anticancer therapy” (priority 2007, published 2009).

One assay deals with T1, DDR2(h) (Homo sapiens, UniProt Q16832).
T1 construct: purchased Upstate (KinaseProfiler service)
The assay is described as follows: Upstate kinase activity inhibition assay DDR2(h). Type of assay: biochemical. Particulars: 40 min; read-out: percentage of enzyme activity that remains.

For another assay, the target named is T2, c-RAF(h) (Homo sapiens, UniProt P04049, Y340D/Y341D).
T2 construct: purchased Upstate (KinaseProfiler service)
T2 sequence (P04049 306-648 Y340D/Y341D limits assumed): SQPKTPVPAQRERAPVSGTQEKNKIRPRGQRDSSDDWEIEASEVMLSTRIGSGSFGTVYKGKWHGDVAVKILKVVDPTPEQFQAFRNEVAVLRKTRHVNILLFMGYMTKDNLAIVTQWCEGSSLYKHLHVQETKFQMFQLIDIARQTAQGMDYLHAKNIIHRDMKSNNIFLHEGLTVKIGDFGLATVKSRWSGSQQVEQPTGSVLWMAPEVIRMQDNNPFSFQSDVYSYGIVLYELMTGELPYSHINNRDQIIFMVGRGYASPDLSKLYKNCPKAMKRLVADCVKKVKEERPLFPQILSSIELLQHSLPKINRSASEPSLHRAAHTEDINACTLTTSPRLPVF
Nature of the assay: Upstate kinase activity inhibition assay c-RAF(h). As to conditions: 40 min; read-out: percentage of enzyme activity that remains. Type of assay: biochemical.

The target of another assay is PKCα(h) (Homo sapiens, UniProt P17252). The assay is described as follows: Upstate kinase activity inhibition assay PKCα(h). Particulars: 40 min, read-out: percentage of enzyme activity that remains.

T1 sequence (Q16832 22-855): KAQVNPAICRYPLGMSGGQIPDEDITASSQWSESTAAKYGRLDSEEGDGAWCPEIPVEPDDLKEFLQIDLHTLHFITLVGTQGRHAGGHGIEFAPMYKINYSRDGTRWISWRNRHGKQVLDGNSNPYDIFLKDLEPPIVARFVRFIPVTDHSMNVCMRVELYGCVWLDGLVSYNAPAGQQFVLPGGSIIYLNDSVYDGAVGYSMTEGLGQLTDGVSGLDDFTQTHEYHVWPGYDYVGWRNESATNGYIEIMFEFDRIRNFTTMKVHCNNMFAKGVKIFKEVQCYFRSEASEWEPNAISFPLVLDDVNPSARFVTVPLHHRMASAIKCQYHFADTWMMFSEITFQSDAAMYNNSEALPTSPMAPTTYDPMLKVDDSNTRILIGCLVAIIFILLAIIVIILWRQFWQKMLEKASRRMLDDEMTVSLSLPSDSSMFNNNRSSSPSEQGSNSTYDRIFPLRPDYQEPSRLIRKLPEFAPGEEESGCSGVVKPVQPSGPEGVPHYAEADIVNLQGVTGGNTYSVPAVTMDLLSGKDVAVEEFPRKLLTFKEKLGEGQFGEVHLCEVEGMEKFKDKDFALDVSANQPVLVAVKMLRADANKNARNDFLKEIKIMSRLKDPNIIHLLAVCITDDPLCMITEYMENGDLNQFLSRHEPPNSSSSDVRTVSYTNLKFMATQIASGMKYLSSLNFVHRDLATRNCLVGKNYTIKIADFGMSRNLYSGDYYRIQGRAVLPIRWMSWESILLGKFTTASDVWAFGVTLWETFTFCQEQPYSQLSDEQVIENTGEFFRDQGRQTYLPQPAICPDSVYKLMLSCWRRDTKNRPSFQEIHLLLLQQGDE

With `Cc1cc(Nc2cc(N3CCN(C)CC3)nc(Sc3ccc(NC(=O)C4CC4)cc3)n2)n[nH]1` [Compound E, Cyclopropane carboxylic acid {4-[4-(4-methyl-piperazin-1-yl)-6-(5-methyl-2H-pyrazol-3-ylamino)-pyrimidin-2-ylsulphanyl]-phenyl}-amide], the remaining activity at 0.2 µM on DDR2(h) came to 100%; at c-RAF(h) it was 106%; on PKCα(h) it was 115%. Besides, the remaining activity at 4 µM came to 100% on c-RAF(h) and 105% on PKCα(h).
